This note sets out measurements from patent US12312332B2 (Merck Sharp & Dohme LLC., priority 2019, dated 2025).

The assay has as its target T1, human OX2R (Homo sapiens, UniProt O43614).
T1 construct: expressed in transfected cells; host or cells: Chinese hamster ovary (CHO) cells, kept under G418 selection
T1 sequence (O43614 1-444): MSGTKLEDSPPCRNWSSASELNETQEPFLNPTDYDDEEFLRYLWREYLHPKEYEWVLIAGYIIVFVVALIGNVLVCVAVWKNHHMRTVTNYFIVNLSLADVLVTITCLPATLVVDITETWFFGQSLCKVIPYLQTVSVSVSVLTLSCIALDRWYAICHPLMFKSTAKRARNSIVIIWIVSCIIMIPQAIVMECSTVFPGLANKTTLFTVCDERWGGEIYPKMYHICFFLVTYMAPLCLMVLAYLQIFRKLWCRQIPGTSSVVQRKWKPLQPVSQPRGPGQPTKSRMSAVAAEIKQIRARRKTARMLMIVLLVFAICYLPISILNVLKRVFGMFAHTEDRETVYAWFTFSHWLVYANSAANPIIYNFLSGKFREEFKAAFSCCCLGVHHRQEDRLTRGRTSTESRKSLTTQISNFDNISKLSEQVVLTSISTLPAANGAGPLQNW
Nature of the assay: IPOne (IP-One) orexin receptor agonist assay in CHO cells expressing human OX2R. The assay is classed as cell-based. Particulars: for EC50: CHO cells expressing human OX2R, IP-One detection, 2 hours incubation, four parameter logistic fit, read-out: OX2R Potency, EC50; for % max agonist effect (Emax): human OX2R, percentage of sample raw value/mean max effect (reference compound at 1 uM with 100% activity).

A word on the EC50: it is the concentration at which the effect is half-maximal.

Turning to `CS(=O)(=O)N[C@H]1CCN(c2ncc(F)cc2F)[C@H]1CO[C@H]1CC[C@@H](c2ccccc2)CC1` [Example 63, N-((2R,3S)-1-(3,5-difluoropyridin-2-yl)-2-((((CIS)-4-phenylcyclohexyl)oxy)methyl)pyrrolidin-3-yl)methanesulfonamide], the concentration giving a half-maximal response (EC50) is 331 nM and the “% max agonist effect (Emax)” value was 101.1%.

As to `COc1cncc(N2CC[C@H](NS(C)(=O)=O)[C@@H]2CO[C@H]2CC[C@@H](c3ccccc3)CC2)c1` [Example 64, N-((2R,3S)-1-(5-methoxypyridin-3-yl)-2-((((CIS)-4-phenylcyclohexyl)oxy)methyl)pyrrolidin-3-yl)methanesulfonamide], the EC50 is 46.3 nM and the “% max agonist effect (Emax)” value is 101.1%.

As to `Cc1cnc(N2CC[C@H](NS(C)(=O)=O)[C@@H]2CO[C@H]2CC[C@@H](c3ccccc3)CC2)cn1` [Example 65, N-((2R,3S)-1-(5-methylpyrazin-2-yl)-2-((((CIS)-4-phenylcyclohexyl)oxy)methyl)pyrrolidin-3-yl)methanesulfonamide], the EC50 stood at 123 nM and the “% max agonist effect (Emax)” value is 100.9%.

In the case of `CS(=O)(=O)N[C@H]1CCN(c2cnc(C3CC3)cn2)[C@H]1CO[C@H]1CC[C@@H](c2ccccc2)CC1` [Example 66, N-((2R,3S)-1-(5-cyclopropylpyrazin-2-yl)-2-((((CIS)-4-phenylcyclohexyl)oxy)methyl)pyrrolidin-3-yl)methanesulfonamide], the concentration giving a half-maximal response (EC50) was determined as 178 nM and the “% max agonist effect (Emax)” value came out at 99.2%.

Turning to `Cc1ccnc(N2CC[C@H](NS(C)(=O)=O)[C@@H]2CO[C@H]2CC[C@@H](c3ccccc3)CC2)n1` [Example 67, N-((2R,3S)-1-(4-methylpyrimidin-2-yl)-2-((((CIS)-4-phenylcyclohexyl)oxy)methyl)pyrrolidin-3-yl)methanesulfonamide], the EC50 turned out to be 2180 nM and the “% max agonist effect (Emax)” value turned out to be 92.6%.

Consider `CS(=O)(=O)N[C@H]1CCN(c2ccc(O)cn2)[C@H]1CO[C@H]1CC[C@@H](c2ccccc2)CC1` [Example 68, N-((2R,3S)-1-(5-hydroxypyridin-2-yl)-2-((((CIS)-4-phenylcyclohexyl)oxy)methyl)pyrrolidin-3-yl)methanesulfonamide], for which the EC50 was determined as 173 nM and the “% max agonist effect (Emax)” value is listed as 99.1%.

In the case of `CS(=O)(=O)N[C@H]1CCN(c2csc(C3CC3)n2)[C@H]1CO[C@H]1CC[C@@H](c2ccccc2)CC1` [Example 69, N-((2R,3S)-1-(2-cyclopropylthiazol-4-yl)-2-((((CIS)-4-phenylcyclohexyl)oxy)methyl)pyrrolidin-3-yl)methanesulfonamide], the EC50 stood at 271 nM and the “% max agonist effect (Emax)” value was determined as 99.4%.

For `CS(=O)(=O)N[C@H]1CCN(c2ccncc2C(F)(F)F)[C@H]1CO[C@H]1CC[C@@H](c2ccccc2)CC1` [Example 70, N-((2R,3S)-2-((((CIS)-4-phenylcyclohexyl)oxy)methyl)-1-(3-(trifluoromethyl)pyridin-4-yl)pyrrolidin-3-yl)methanesulfonamide], the EC50 came to 1670 nM and the “% max agonist effect (Emax)” value was found to be 96.0%.

`CS(=O)(=O)N[C@H]1CCN(c2ccc(CO)nc2)[C@H]1CO[C@H]1CC[C@@H](c2ccccc2)CC1` [Example 71, N-((2R,3S)-1-(6-(hydroxymethyl)pyridin-3-yl)-2-((((CIS)-4-phenylcyclohexyl)oxy)methyl)pyrrolidin-3-yl)methanesulfonamide]: the EC50 came out at 23.8 nM and the “% max agonist effect (Emax)” value is listed as 101.1%.

As for `CS(=O)(=O)N[C@H]1CCN(c2nccc(O)c2F)[C@H]1CO[C@H]1CC[C@@H](c2ccccc2)CC1` [Example 72, N-((2R,3S)-1-(3-fluoro-4-hydroxypyridin-2-yl)-2-((((CIS)-4-phenylcyclohexyl)oxy)methyl)pyrrolidin-3-yl)methanesulfonamide], the EC50 came out at 1.2 nM and the “% max agonist effect (Emax)” value is reported as 99.9%.

As to `COc1ccnc(N2CC[C@H](NS(C)(=O)=O)[C@@H]2CO[C@H]2CC[C@@H](c3ccccc3)CC2)c1` [Example 73, N-((2R,3S)-1-(4-methoxypyridin-2-yl)-2-((((CIS)-4-phenylcyclohexyl)oxy)methyl)pyrrolidin-3-yl)methanesulfonamide], the EC50 was determined as 105 nM and the “% max agonist effect (Emax)” value stood at 99.7%.

For `CN(C)c1ccnc(N2CC[C@H](NS(C)(=O)=O)[C@@H]2CO[C@H]2CC[C@@H](c3ccccc3)CC2)c1` [Example 74, N-((2R,3S)-1-(4-(dimethylamino)pyridin-2-yl)-2-((((CIS)-4-phenylcyclohexyl)oxy)methyl)pyrrolidin-3 - yl)methanesulfonamide], the EC50 is 662 nM and the “% max agonist effect (Emax)” value turned out to be 97.4%.

For the compound `CS(=O)(=O)N[C@H]1CCN(c2cc(O)ccn2)[C@H]1CO[C@H]1CC[C@@H](c2ccccc2)CC1` [Example 75, N-((2R,3S)-1-(4-hydroxypyridin-2-yl)-2-((((CIS)-4-phenylcyclohexyl)oxy)methyl)pyrrolidin-3-yl)methanesulfonamide], the EC50 was 0.8 nM and the “% max agonist effect (Emax)” value is given as 100.4%.

With `C[C@@H]1C[C@H](NS(C)(=O)=O)[C@H](CO[C@H]2CC[C@@H](c3ccccc3)CC2)N1c1nnnn1C` [Example 80, N-((2R,3S,5R)-5-Methyl-1-(1-methyl-1H-tetrazol-5-yl)-2-((((CIS)-4-phenylcyclohexyl)oxy)-methyl)pyrrolidin-3-yl)methanesulfonamide], the EC50 was determined as 1.8 nM and the “% max agonist effect (Emax)” value was 97.9%.

`Cc1ccncc1N1CC[C@H](NS(C)(=O)=O)[C@@H]1CO[C@H]1CC[C@@H](c2ccccc2)CC1` [Example 81, N-((2R,3S)-1-(4-Methylpyridin-3-yl)-2-((((CIS)-4-phenylcyclohexyl)oxy)methyl)pyrrolidin-3-yl)methanesulfonamide]: the EC50 was 24.5 nM and the “% max agonist effect (Emax)” value amounted to 100.9%.

For the compound `Cc1ncccc1N1CC[C@H](NS(C)(=O)=O)[C@@H]1CO[C@H]1CC[C@@H](c2ccccc2)CC1` [Example 82, N-((2R,3S)-1-(2-methylpyridin-3-yl)-2-((((CIS)-4-phenylcyclohexyl)oxy)methyl)pyrrolidin-3-yl)methanesulfonamide], the EC50 stood at 3360 nM and the “% max agonist effect (Emax)” value was determined as 92.4%.

Take `Cc1ncsc1N1CC[C@H](NS(C)(=O)=O)[C@@H]1CO[C@H]1CC[C@@H](c2ccccc2)CC1` [Example 83, N-((2R,3S)-1-(4-methylthiazol-5-yl)-2-((((CIS)-4-phenylcyclohexyl)oxy)methyl)pyrrolidin-3-yl)methanesulfonamide]: the EC50 came out at 1070 nM and the “% max agonist effect (Emax)” value worked out at 94.8%.

Consider `Cc1scnc1N1CC[C@H](NS(C)(=O)=O)[C@@H]1CO[C@H]1CC[C@@H](c2ccccc2)CC1` [Example 84, N-((2R,3S)-1-(5-methylthiazol-4-yl)-2-((((CIS)-4-phenylcyclohexyl)oxy)methyl)pyrrolidin-3-yl)methanesulfonamide], for which the EC50 was determined as 109 nM and the “% max agonist effect (Emax)” value was 100.7%.

For the compound `COC[C@@H]1C[C@H](NS(C)(=O)=O)[C@H](CO[C@H]2CC[C@@H](c3cccc(F)c3)CC2)N1c1cc(O)c(F)cn1` [Example 85, N-((2R,3S,5S)-1-(5-fluoro-4-hydroxypyridin-2-yl)-2-((((CIS)-4-(3-fluorophenyl)cyclohexyl)-oxy)methyl)-5-(methoxymethyl)pyrrolidin-3-yl)methanesulfonamide], the concentration giving a half-maximal response (EC50) was found to be 0.54 nM and the “% max agonist effect (Emax)” value is reported as 101.1%.

For `Cn1ccc(=O)c(F)c1N1CC[C@H](NS(C)(=O)=O)[C@@H]1CO[C@H]1CC[C@@H](c2ccccc2)CC1` [Example 86, N-((2R,3S)-1-(3-fluoro-1-methyl-4-oxo-1,4-dihydropyridin-2-yl)-2-((((CIS)-4-phenylcyclohexyl)oxy)methyl)pyrrolidin-3-yl)methanesulfonamide], the EC50 is 148 nM and the “% max agonist effect (Emax)” value is 99.9%.

Take `Cn1ccc(=O)cc1N1CC[C@H](NS(C)(=O)=O)[C@@H]1CO[C@H]1CC[C@@H](c2ccccc2)CC1` [Example 87, N-((2R,3S)-1-(1-methyl-4-oxo-1,4-dihydropyridin-2-yl)-2-((((CIS)-4-phenylcyclohexyl)oxy)methyl)pyrrolidin-3-yl)methanesulfonamide]: the EC50 came out at 52.4 nM and the “% max agonist effect (Emax)” value stood at 102.3%.

For the compound `Cn1cc(F)c(=O)cc1N1CC[C@H](NS(C)(=O)=O)[C@@H]1CO[C@H]1CC[C@@H](c2ccccc2)CC1` [Example 88, N-((2R,3S)-1-(5-fluoro-1-methyl-4-oxo-1,4-dihydropyridin-2-yl)-2-((((CIS)-4-phenylcyclohexyl)oxy)methyl)pyrrolidin-3-yl)methanesulfonamide], the EC50 is 29.3 nM and the “% max agonist effect (Emax)” value is recorded as 101.1%.

Consider `CS(=O)(=O)N[C@H]1CCN(c2cc(=O)c(F)cn2CC(F)F)[C@H]1CO[C@H]1CC[C@@H](c2ccccc2)CC1` [Example 89, N-((2R,3S)-1-(1-(2,2-difluoroethyl)-5-fluoro-4-oxo-1,4-dihydropyridin-2-yl)-2-((((CIS)-4-phenylcyclohexyl)oxy)methyl)pyrrolidin-3-yl)methanesulfonamide], for which the EC50 was found to be 108 nM and the “% max agonist effect (Emax)” value is listed as 98.9%.
